Series [1] can be described thus: Activator selection: pH of Peroxydone K-30 dispersion in water after addition of activator. The format is physicochemical. As to conditions: for Associated pH: at the minimum amount of activator, 11 g of Peroxydone K-30 in 75 g of water; for Minimum amount in order to reach a pH > 9 or a plateau pH if pH < 9: initial amount of 11 g of Peroxydone K-30, i.e. 2 g of H2O2, in 75 g of water. As to the method: In the case of a PVP-H2O2 complex, the following protocol can be used to select the activators. A dispersion of 11 g of Peroxydone K-30® (ISP) in 75 g of water is produced, to which increasing amounts of activator are added. pH is measured immediately after each addition. The activator is added in excess until the activator/H2O2 ratio by weight reaches 10.

Series [2] can be described thus: In vitro bleaching test on a dye (lightening activity). The conditions noted are these: H2O2 4% or PVP-H2O2 22% (eq. 4% H2O2), 1 g in 19 g dye solution, pH 10.7, OD 630 nm. Here is the method:
Protocol for in vitro bleaching test Dye solution or “solution X” is a solution of disodium salt of brilliant blue FCF (CI: 42090) from LCW (Sensient). The dye solution is prepared as follows: 15 mg of dye powder are dissolved in 50 ml of borate buffer pH 10.7 and then again diluted to 1/50th. […] After stirring the mixture in the dark for 10 min, the dispersion is filtered (0.45 μm cellulose filter) and the optical density is measured over the range from 400 to 800 nm at 25° C. […] The decoloring effectiveness is reflected by the bleaching percentage at t=10 min (i.e. [ODt10 min (mixture)−ODt10 min (dye)/ODt0 (dye)]×100.

Take `[Ca+2].[O-][O-]` [Calcium peroxide]: in series [1], the “Associated pH” value is 9.3 and the “Minimum amount in order to reach a pH > 9 or a plateau pH if pH < 9” value is recorded as 0.05 g.
In the case of `OO` [Product H2O2, hydrogen peroxide], the “bleaching percentage at t=10 min” value in series [2] (dilution medium PEG-8) stood at 61%; in series [2] (dilution medium butylene glycol), 63%; in series [2] (dilution medium ethanol) it was 72%; in series [2] (dilution medium glycerol) it was 27%.
Take `O=C([O-])O.[Na+]` [Sodium bicarbonate]: in series [1], the “Associated pH” value stood at 8.1 and the “Minimum amount in order to reach a pH > 9 or a plateau pH if pH < 9” value is reported as 0.9 g.
The matching figures for `O=[Si]([O-])[O-].[Na+].[Na+]` [Sodium metasilicate]: 9.8 and 0.11 g.

Values taken from patent publication US20110059035A1, “COMPOSITIONS BASED ON POLYMER/HYDROGEN PEROXIDE COMPLEXES AND USES THEREOF” (L"OREAL, priority 2008, published 2011).
